Test results as given in patent US10047088B2, “1H-1,8-naphthyridin-2-ones as anti proliferative compounds” (NATCO PHARMA LIMITED, priority 2014, dated 2018).
Where two headings read alike, the source gives them in different places.

Tests used:
[1] = biological target: Baf3/T315I (Homo sapiens, UniProt P00519, T315I, cells depend on it); test: MTT cell proliferation assay, Baf3/T315I; assay type: cell-based; settings: read-out: IC50 values obtained from MTT assay
Experimental: (§1) All the experimental compounds were evaluated for in vitro efficacy employing standard cell lines used for the screening of anti-cancer compounds.
(§2) In Vitro Studies of NRC-21T on BCR-abl Positive Cell Line K562 and Mutant Cell Lines Baf3/T315i, M351T, E255K and WT.
(§3) The stock solution was further diluted with the same cell culture medium and used in concentrations of 0.1 nm to 10 μm. Cell proliferation by MTT assay was done as follows. 1000 to 10,000 cells were seeded per well in 96-well plate and different concentrations of […] ranging from 10 μm to 0.1 nM were added in triplicates. After incubating the cells with NRC-21T for the required time period 24-72 hrs, 15 μl of 5 mg/ml MTT was added and incubated for additional 4 hours at 37° C. and 5% CO2. After 4 hrs, formazan crystals were dissolved in solubilizing buffer overnight at 37° C. Absorbance was measured on Elisa reader at dual wavelength of 570-630-nm. By MTT assay the IC50 values of the NRC21T were computed. […] (FIG. 3)

[2] = test system: BCR-abl positive cell line K562; test: MTT cell proliferation assay, K562; assay type: cell-based; settings: Homo sapiens, read-out: IC50 values obtained from MTT assay
Experimental: as §1, §2, §3

[3] = biological target: Baf3/E255K (Homo sapiens, UniProt P00519, E255K, cells depend on it); test: MTT cell proliferation assay, Baf3/E255K; assay type: cell-based; settings: Table 1A, 24-72 hrs incubation, read-out: IC50 values obtained from MTT assay
Experimental: as §1, §2, §3

[4] = biological target: Baf3/M351T (Homo sapiens, UniProt P00519, M351T, cells depend on it); test: MTT cell proliferation assay, Baf3/M351T; assay type: cell-based; settings: Table 1A, 24-72 hrs incubation, read-out: IC50 values obtained from MTT assay
Experimental: as §1, §2, §3

[5] = test system: T315I induced tumour; test: Antagonism in T315I induced tumour in Nude Mice; assay type: in vivo; settings: for Tumour volume after treatment (Mean ± SEM): daily oral, NRC21T 200 mg/kg, Ponatinib 50 mg/kg
Experimental: The study was carried out with 18 Nude Mice (9 Male+9 Female).
The cell line was inoculated into Nude Mice subcutaneously to the right hind limb flank at a strength of 1×10^6 cells/0.2 ml. Animals were observed daily for the appearance of tumour. The tumour volume was measured using the formula ½ l×w^2 (l=length of tumour & w=width of tumour). When the mean tumour volume was recorded above 400 mm^3, the treatment with the above drugs was started. The above drugs were administered orally daily for 30 days. Weights of Nude Mice were taken daily before dosing and tumour measurements were done on alternative days using digital Vernier caliper. Surviving animals were sacrificed after the dosing was complete for 30 days and the organs (tumour with skin and spleen) were collected.

[6] = in vivo; settings: both, Swiss Albino, mouse
[7] = biological target: Baf3/WT (Homo sapiens, UniProt P00519); test: MTT cell proliferation assay, Baf3/WT; assay type: cell-based; settings: Table 1A, 24-72 hrs incubation, read-out: IC50 values obtained from MTT assay
Experimental: as §1, §2, §3

[8] = test system: T315I cell Line; test: Survival time in SCID Mice injected with T315I cell line; assay type: in vivo; settings: T315I cells i.v., 30 days dosing, NRC21T 200 mg/kg p.o, Ponatinib 10 mg/kg p.o
[9] = test system: BaF3/T315i mutant Leukemia cancer cells; test: Matrigel invasion assay; assay type: cell-based; settings: matrigel transwell, 72 hrs, specified concentration
Experimental: T315i cells (3×10^5) were suspended in 300 μl of serum-free medium and placed in the upper compartment of transwell chambers pre-coated with the matrigel (Millipore, Catalog No. ECM550, USA). The lower compartment of the chamber was filled with 500 μl serum-medium (10% FBS) and the cells were allowed to migrate for 72 hrs. After incubation, the cells were fixed and stained with the dye provided along with the kit and quantified using Elisa plate reader at 560 nm.

Structure (SMILES): Cc1ccc(C(=O)Nc2ccc(CN3CCN(C)CC3)c(C(F)(F)F)c2)cc1/C=C/c1cnc2[nH]c(=O)ccc2c1 [NRC-20T, 4-Methyl-N-[4-[(4-methylpiperazin-1-yl)methyl]-3-(trifluoromethyl)phenyl]-3-[(E)-2-(7-oxo-8H-1,8-naphthyridin-3-yl)vinyl]benzamide]
- GI50 ([1]; Table 1B, T315I): 0.155 µM
- IC50 ([2]; Table 1B): 0.033 µM

Structure (SMILES): Cc1ccc(C(=O)Nc2ccc(CN3CCN(C)CC3)c(C(F)(F)F)c2)cc1C#Cc1cnc2[nH]c(=O)ccc2c1 [NRC21T, 4-Methyl-N-[4-[(4-methylpiperazin-1-yl)methyl]-3-(trifluoromethyl)phenyl]-3-[2-(7-oxo-8H-1,8-naphthyridin-3-yl)ethynyl]benzamide]
- GI50 [3]: 0.016 µM
- GI50 [4]: 0.002 µM
- Tumour volume after treatment (Mean ± SEM) ([5]; 3rd Day): 721.18 ± 141.41 mm^3
- Tumour volume after treatment (Mean ± SEM) ([5]; 5th Day): 183.97 ± 8.66 mm^3
- Tumour volume after treatment (Mean ± SEM) ([5]; 7th Day): 106.59 ± 11.90 mm^3
- Tumour volume after treatment (Mean ± SEM) ([5]; 9th Day): 83.21 ± 8.83 mm^3
- Tumour volume after treatment (Mean ± SEM) ([5]; 11th Day): 48.88 ± 4.36 mm^3
- Tumour volume after treatment (Mean ± SEM) ([5]; 13th Day): 10.61 ± 2.3 mm^3
- Initial tumour volume (Mean ± SEM) ([5]; before treatment, NRC21T 200 mg/kg p.o, Ponatinib 50 mg/kg p.o groups): 921.35 ± 176.32 mm^3
- GI50 ([1]; Table 1A, Baf3/T315I, 24-72 hrs incubation): 0.014 µM
- MTD at 14 days [6]: > 2000 mg/kg
- GI50 [7]: 0.011 µM
- Mean Survival Time (Mean ± SEM) [8]: 36 ± 0 days
- Percentage of Anti-invasion property [9]: 28%
- IC50 ([2]; Table 1A, 24-72 hrs incubation): 0.007 µM

Structure (SMILES): Cc1ccc(C(=O)Nc2cccc(C(F)(F)F)c2)cc1C#Cc1cnc2[nH]c(=O)ccc2c1 [NRC-14T, 4-Methyl-3-[2-(7-oxo-8H-1,8-naphthyridin-3-yl)ethynyl]-N-[3-(trifluoromethyl)phenyl]benzamide]
- GI50 ([1]; Table 1B, T315I): 1.04 µM
- IC50 ([2]; Table 1B): 0.008 µM

Structure (SMILES): Cc1ccc(C(=O)Nc2cc(CN3CCN(C)CC3)cc(C(F)(F)F)c2)cc1C#Cc1cnc2[nH]c(=O)ccc2c1 [NRC-17T, 4-Methyl-N-[3-[(4-methylpiperazin-1-yl)methyl]-5-(trifluoromethyl)phenyl]-3-[2-(7-oxo-8H-1,8-naphthyridin-3-yl)ethynyl]benzamide]
- GI50 ([1]; Table 1B, T315I): 0.712 µM
- IC50 ([2]; Table 1B): 0.021 µM

Structure (SMILES): Cc1ccc(NC(=O)c2cccc(C(F)(F)F)c2)cc1C#Cc1cnc2[nH]c(=O)ccc2c1 [NRC-13T, N-[4-Methyl-3-[2-(7-oxo-8H-1,8-naphthyridin-3-yl)ethynyl]phenyl]-3-(trifluoromethyl)benzamide]
- GI50 ([1]; Table 1B, T315I): 1.51 µM
- IC50 ([2]; Table 1B): 0.009 µM

Structure (SMILES): Cc1ccc(C(=O)Nc2cc(C(F)(F)F)cc(C(F)(F)F)c2)cc1C#Cc1cnc2[nH]c(=O)ccc2c1 [NRC-16T, N-[3,5-Bis(trifluoromethyl)phenyl]-4-methyl-3-[2-(7-oxo-8H-1,8-naphthyridin-3-yl)ethynyl]benzamide]
- GI50 ([1]; Table 1B, T315I): > 10 µM

Structure (SMILES): Cc1ccc(C(=O)Nc2ccc(CN3CCN(C)CC3)c(C(F)(F)F)c2)cc1C#Cc1cnc2cccnn12 [Ponatinib, reference compound]
- Mean Survival Time (Mean ± SEM) [8]: 36 ± 0 days
- Percentage of Anti-invasion property [9]: 12%

Structure (SMILES): Cc1ccc(NC(=O)c2ccc(CN3CCN(C)CC3)c(C(F)(F)F)c2)cc1C#Cc1cnc2[nH]c(=O)ccc2c1 [NRC-19T, N-[4-Methyl-3-[2-(7-oxo-8H-1,8-naphthyridin-3-yl)ethynyl]phenyl]-4-[(4-methylpiperazin-1-yl)methyl]-3-(trifluoromethyl)benzamide]
- GI50 ([1]; Table 1B, T315I): 0.334 µM
- IC50 ([2]; Table 1B): 0.007 µM

Structure (SMILES): Cc1cn(-c2cc(NC(=O)c3ccc(C)c(C#Cc4cnc5[nH]c(=O)ccc5c4)c3)cc(C(F)(F)F)c2)cn1 [NRC-18T, 4-Methyl-N-[3-(4-methylimidazol-1-yl)-5-(trifluoromethyl)phenyl]-3-[2-(7-oxo-8H-1,8-naphthyridin-3-yl)ethynyl]benzamide]
- GI50 ([1]; Table 1B, T315I): 0.228 µM

Structure (SMILES): Cc1ccc(NC(=O)c2cc(C(F)(F)F)cc(C(F)(F)F)c2)cc1C#Cc1cnc2[nH]c(=O)ccc2c1 [NRC-15T, N-[4-Methyl-3-[2-(7-oxo-8H-1,8-naphthyridin-3-yl)ethynyl]phenyl]-3,5-Bis(trifluoromethyl)benzamide]
- GI50 ([1]; Table 1B, T315I): 7.69 µM
- IC50 ([2]; Table 1B): 0.02 µM
